Key:
Assay in all cases: relative viability (nuclei count vs DMSO), 5 days (fraction); higher = more cells survive
Etoposide + Luminespib = compound: COc1cc([C@@H]2c3cc4c(cc3[C@@H](O[C@@H]3O[C@@H]5CO[C@@H](C)O[C@H]5[C@H](O)[C@H]3O)[C@H]3COC(=O)[C@H]23)OCO4)cc(OC)c1O [Etoposide] + CCNC(=O)c1noc(-c2cc(C(C)C)c(O)cc2O)c1-c1ccc(CN2CCOCC2)cc1 [Luminespib] (partner 0.01 µM)
Procedure, shortened: (§1)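 Relative viability equals treated-well nuclei counts divided by vehicle-well nuclei counts. Counts came from 4× images of lung cancer cell lines grown in 1536-well plates for 5 days after pin-tool dosing on the day after seeding. Dosing used one drug alone or a fixed anchor-drug dose plus five library-drug doses (not always all listed) in √10 steps, and values are medians of duplicate plates.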

Etoposide + Palbociclib = compound: COc1cc([C@@H]2c3cc4c(cc3[C@@H](O[C@@H]3O[C@@H]5CO[C@@H](C)O[C@H]5[C@H](O)[C@H]3O)[C@H]3COC(=O)[C@H]23)OCO4)cc(OC)c1O [Etoposide] + CC(=O)c1c(C)c2cnc(Nc3ccc(N4CCNCC4)cn3)nc2n(C2CCCC2)c1=O [Palbociclib] (partner 0.5 µM)
Procedure, shortened: as §1

Bleomycin + Lapatinib = compound: CC1=C(N=C(N=C1N)[C@H](CC(=O)N)NC[C@@H](C(=O)N)N)C(=O)N[C@@H]([C@H](C2=CN=CN2)OC3C(C(C(C(O3)CO)O)O)OC4C(C(C(C(O4)CO)O)OC(=O)N)O)C(=O)N[C@H](C)[C@H]([C@H](C)C(=O)N[C@@H]([C@@H](C)O)C(=O)NCCC5=NC(=CS5)C6=NC(=CS6)C(=O)NCCC[S+](C)C)O [Bleomycin] + CS(=O)(=O)CCNCc1ccc(-c2ccc3ncnc(Nc4ccc(OCc5cccc(F)c5)c(Cl)c4)c3c2)o1 [Lapatinib] (partner 2 µM); settings: main component drawn
Procedure, shortened: as §1

Etoposide + Phenformin = compound: COc1cc([C@@H]2c3cc4c(cc3[C@@H](O[C@@H]3O[C@@H]5CO[C@@H](C)O[C@H]5[C@H](O)[C@H]3O)[C@H]3COC(=O)[C@H]23)OCO4)cc(OC)c1O [Etoposide] + N=C(N)NC(=N)NCCc1ccccc1 [Phenformin] (partner 250 µM)
Procedure, shortened: as §1

Cell Line | relative viability (Etoposide + Luminespib; first compound 0.01 µM) | relative viability (Etoposide + Luminespib; first compound 0.03162 µM) | relative viability (Etoposide + Luminespib; first compound 0.1 µM) | relative viability (Etoposide + Luminespib; first compound 0.3162 µM) | relative viability (Etoposide + Luminespib; first compound 1 µM) | relative viability (Etoposide + Palbociclib; first compound 0.01 µM) | relative viability (Etoposide + Palbociclib; first compound 0.03162 µM) | relative viability (Etoposide + Palbociclib; first compound 0.1 µM) | relative viability (Etoposide + Palbociclib; first compound 0.3162 µM) | relative viability (Etoposide + Palbociclib; first compound 1 µM) | relative viability (Bleomycin + Lapatinib; first compound 0.01 µM) | relative viability (Bleomycin + Lapatinib; first compound 0.03162 µM) | relative viability (Bleomycin + Lapatinib; first compound 0.1 µM) | relative viability (Bleomycin + Lapatinib; first compound 0.3162 µM) | relative viability (Bleomycin + Lapatinib; first compound 1 µM) | relative viability (Etoposide + Phenformin; first compound 0.01 µM) | relative viability (Etoposide + Phenformin; first compound 0.03162 µM) | relative viability (Etoposide + Phenformin; first compound 0.1 µM) | relative viability (Etoposide + Phenformin; first compound 0.3162 µM) | relative viability (Etoposide + Phenformin; first compound 1 µM)
NCI-H650 | 0.695 | 0.895 | 0.336 | 0.179 | 0.174 | 0.29 | 0.299 | 0.26 | 0.237 | 0.161 | 0.537 | 0.748 | 0.686 | 0.318 | 0.21 | 0.445 | 0.508 | 0.394 | 0.363 | 0.226
NCI-H2023 | 0.709 | 0.829 | 0.708 | 0.195 | 0.112 | 0.312 | 0.201 | 0.351 | 0.201 | 0.173 | 0.521 | 0.664 | 0.506 | 0.19 | 0.101 | 0.403 | 0.385 | 0.307 | 0.198 | 0.107
SK-LU-1 | 0.237 | 0.243 | 0.189 | 0.191 | 0.183 | 0.381 | 0.397 | 0.319 | 0.247 | 0.22 | 0.745 | 0.858 | 0.709 | 0.35 | 0.347 | 0.476 | 0.605 | 0.322 | 0.224 | 0.183
A-427 | 0.832 | 1.02 | 0.61 | 0.382 | 0.182 | 0.51 | 0.479 | 0.486 | 0.378 | 0.282 | 0.797 | 0.874 | 0.776 | 0.369 | 0.169 | 0.362 | 0.317 | 0.258 | 0.213 | 0.143
NCI-H460 | 0.0412 | 0.0382 | 0.0395 | 0.0281 | 0.0302 | 0.131 | 0.11 | 0.111 | 0.0408 | 0.0313 | 0.296 | 0.29 | 0.0624 | 0.0161 | 0.0213 | 0.476 | 0.492 | 0.352 | 0.0419 | 0.0382
NCI-H1792 | 0.317 | 0.472 | 0.205 | 0.215 | 0.248 | 0.579 | 0.636 | 0.598 | 0.606 | 0.461 | 0.848 | 0.798 | 0.841 | 0.326 | 0.139 | 0.177 | 0.189 |  | 0.257 | 0.0965
SW 1573 | 0.131 | 0.164 | 0.355 | 0.152 | 0.0996 | 0.363 | 0.349 | 0.288 | 0.16 | 0.109 | 1.05 | 0.871 | 0.84 | 0.446 | 0.4 | 0.341 | 0.36 | 0.255 | 0.183 | 0.142
RERF-LC-KJ | 1.16 | 1.2 | 1.29 | 0.93 | 0.724 | 1.04 | 1.19 | 0.918 | 0.912 | 0.606 | 0.72 | 0.702 | 0.59 | 0.354 | 0.254 | 0.414 | 0.469 | 0.42 | 0.36 | 0.329
EMC-BAC-2 | 0.895 | 0.932 | 0.651 | 0.297 | 0.248 | 0.495 | 0.49 | 0.399 | 0.321 | 0.254 | 0.817 | 0.754 | 0.719 | 0.399 | 0.305 | 0.424 | 0.483 | 0.309 | 0.24 | 0.197
LK-2 | 0.206 | 0.181 | 0.154 | 0.195 | 0.159 | 0.618 | 0.588 | 0.451 | 0.412 | 0.275 | 0.66 | 0.488 | 0.542 | 0.261 | 0.248 | 0.563 | 0.641 | 0.368 | 0.319 | 0.172
NCI-H2228 | 0.159 | 0.141 | 0.154 | 0.117 | 0.147 | 0.705 | 0.765 | 0.435 | 0.32 | 0.145 | 0.999 | 1.12 | 0.852 | 0.355 | 0.505 | 0.39 | 0.348 | 0.224 | 0.176 | 0.102
NCI-H322M | 0.789 | 0.846 | 0.553 | 0.486 | 0.392 | 0.526 | 0.481 | 0.436 | 0.467 | 0.445 | 0.467 | 0.551 | 0.543 | 0.383 | 0.348 | 0.766 | 0.881 | 0.658 | 0.666 | 0.378
NCI-H1975 | 0.34 | 0.199 | 0.125 | 0.242 | 0.199 | 0.548 | 0.665 | 0.521 | 0.331 | 0.281 | 0.657 | 0.551 | 0.542 | 0.25 | 0.213 | 0.398 | 0.486 | 0.382 | 0.293 | 0.17
NCI-H1944 | 0.519 | 0.936 | 0.597 | 0.404 | 0.247 | 0.315 | 0.358 | 0.233 | 0.231 | 0.198 | 0.533 | 0.41 | 0.355 | 0.242 | 0.151 | 0.189 | 0.275 | 0.213 | 0.148 | 0.123
LU99A | 0.279 | 0.255 | 0.246 | 0.22 | 0.217 | 0.392 | 0.427 | 0.266 | 0.226 | 0.166 | 0.58 | 0.742 | 0.271 | 0.138 | 0.108 | 0.898 | 0.992 | 0.589 | 0.579 | 0.16
